Biological target: T1, FXR (Homo sapiens, UniProt Q96RI1)
T1 construct: using a full length FXR on a natural response element; expressed in transfected cells
T1 sequence (Q96RI1 1-486): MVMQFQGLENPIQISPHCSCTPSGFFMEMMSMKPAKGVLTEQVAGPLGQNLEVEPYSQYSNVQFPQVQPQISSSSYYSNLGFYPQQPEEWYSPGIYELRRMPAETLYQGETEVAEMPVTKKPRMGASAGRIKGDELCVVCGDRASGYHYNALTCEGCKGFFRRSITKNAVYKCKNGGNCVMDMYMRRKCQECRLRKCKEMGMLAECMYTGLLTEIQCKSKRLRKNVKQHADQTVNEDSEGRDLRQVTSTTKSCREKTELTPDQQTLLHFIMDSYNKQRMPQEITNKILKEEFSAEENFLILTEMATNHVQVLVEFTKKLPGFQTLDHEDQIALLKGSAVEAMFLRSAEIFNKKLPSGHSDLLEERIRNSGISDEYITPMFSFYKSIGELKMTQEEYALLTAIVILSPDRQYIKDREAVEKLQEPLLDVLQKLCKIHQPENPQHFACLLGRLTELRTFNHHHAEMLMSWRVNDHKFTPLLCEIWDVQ
Test: cell-based FXR transcription assay, FXR responsive promoter linked to luciferase reporter
Conditions: for RE^a / EC50: cell-based FXR reporter assay; for RE^a: footnote a not given; for EC50: determined with Prism 3.0; for FXR activation, in words: cell-based reporter assay, SAR discussion
From the text: In addition to ensuring that only cell permeable compounds were selected for further optimization, this approach allows for the detection of FXR activation in a natural system (i.e., correct folding of the protein and in the presence of a complete compliment of co-activators and co-repressors).
The feasibility of creating high throughput screens (HTS) for ORs was explored using FXR as a candidate orphan receptor (OR) with a known activator, chenodeoxycholic acid (CDCA) as a ligand. The screen is based on the co-transfection of a full-length receptor with the reporter vector containing a natural hormone response element under a minimal eukaryotic promoter. […] Using this 384-well format, the high throughput screening (HTS) approach to FXR as a candidate OR was employed. […] A central question in the feasibility studies is whether this library is suitable for screening for nuclear receptor ligands. Samples of this library were first reformatted into a 384-well format and then subjected to the FXR cell-based assays described above and assessed for FXR-mediated transcriptional activity. Cells were exposed to approximately 10 μM of sample for 18 hrs prior to washing and luciferase analysis.
EC50 values were determined with Prism 3.0 software via the activity of the subject compound in the previously described cell based assay.

| Compound | RE^a | EC50 [nM] | FXR activation, in words |
| --- | --- | --- | --- |
| COC(=O)C=Cc1ccc(CN(C(=O)C2CCCCC2)c2cccc(C=CC(=O)OC)c2)cc1 [Compound 150] | 0.87 | – | – |
| COC(=O)/C=C/c1cccc(N(Cc2ccc(-c3ccc(N(C)C)cc3)cc2)C(=O)C(C)C)c1 [Compound 260] | 1.07 | – | excellent activity |
| COC(=O)/C=C/c1cccc(N(Cc2ccc(/C=C/C(=O)OC(C)(C)C)cc2)C(=O)NC(C)C)c1 [Compound 145] | 1.96 | – | – |
| COC(=O)/C=C/c1cccc(N(Cc2ccc(-c3ccc(C(C)(C)C)cc3)cc2)C(=O)NC(C)C)c1 [Compound 264] | 1.02 | – | – |
| COC(=O)C=Cc1cccc(N(Cc2ccc(C=CC(=O)OC(C)(C)C)cc2OC(=O)c2ccccc2)C(=O)C2CCCCC2)c1 [Compound 165] | 0.16 | – | – |
| COC(=O)/C=C/c1cccc(N(Cc2ccccc2)Cc2ccc3c(c2OC)OC(C)(C)C=C3)c1 [Compound 78] | – | – | inactive |
| COC(=O)/C=C/c1cccc(N(Cc2cc(OC)cc(OC)c2)C(=O)C2CCCCC2)c1 [Compound 118] | 0.11 | – | – |
| COC(=O)/C=C/c1cccc(N(Cc2ccc(/C=C/C(=O)OC(C)(C)C)cc2)C(=O)c2ccco2)c1 [Compound 144] | 1.93 | – | – |
| COC(=O)/C=C/c1cccc(N(Cc2ccc(-c3cccc(C(C)=O)c3)cc2)C(=O)C2CCCCC2)c1 [Compound 127] | 1.30 | – | – |
| COC(=O)C=Cc1cccc(N(Cc2ccc(C=Cc3ccccn3)cc2)C(=O)NC(C)C)c1 [Compound 209] | 0.68 | – | – |
| COC(=O)/C=C/c1cccc(N(Cc2ccc(-c3cccc(C)c3)cc2)C(=O)NC(C)C)c1 [Compound 240] | 0.53 | – | – |
| COC(=O)/C=C/c1cccc(N(Cc2ccc(-c3ccc(SC)cc3)cc2)C(=O)C2CCCCC2)c1 [Compound 125] | 1.74 | – | excellent activity |
| COC(=O)C=Cc1cccc(N(Cc2ccc(C=CC(=O)OC(C)(C)C)cc2OC)C(=O)C2CCCCC2)c1 [Compound 162] | 0.14 | – | – |
| COC(=O)/C=C/c1ccc(N(Cc2ccc3c(c2OC)OC(C)(C)C=C3)C(=O)C2CC2)cc1 [Compound 53] | – | – | does not activate FXR |
| COC(=O)/C=C/c1cccc(N(Cc2ccc(/C=C/c3ccccc3F)cc2)C(=O)NC(C)C)c1 [Compound 194] | 0.69 | – | – |
| COC(=O)/C=C/c1cccc(N(Cc2ccc(/C=C/c3c(C)cc(C)cc3C)cc2)C(=O)NC(C)C)c1 [Compound 197] | 0.14 | – | – |
| COC(=O)/C=C/c1cccc(N(Cc2cccc(C(F)(F)F)c2)C(=O)C2CCCCC2)c1 [Compound 117] | 0.12 | – | – |
| CCOCC=Cc1cccc(N(Cc2ccc(C=CC(=O)OC(C)(C)C)cc2)C(=O)C2CCCCC2)c1 [Compound 137] | 1.74 | – | – |
| COC/C=C/c1cccc(N(Cc2ccc3c(c2OC)OC(C)(C)C=C3)C(=O)C2CC2)c1 [Compound 33] | – | – | capable of activating FXR to a significant extent |
| COC(=O)/C=C/c1cccc(N(Cc2ccc(Br)cc2)C(=O)C2CCCCC2)c1 [Compound 112] | 0.28 | – | – |
| COC(=O)C=Cc1cccc(N(Cc2ccc(C=Cc3scnc3C)cc2)C(=O)NC(C)C)c1 [Compound 212] | 0.42 | – | – |
| COC(=O)C=Cc1cccc(N(Cc2ccc(C=Cc3ccccn3)cc2)C(=O)C2CCCCC2)c1 [Compound 207] | 0.81 | – | – |

More lines, now with the values ahead:

| RE^a | EC50 [nM] | FXR activation, in words | Compound |
| --- | --- | --- | --- |
| 0.35 | 937 | – | COC(=O)C=Cc1cccc(N(Cc2ccc(C=Cc3cccc(C(F)(F)F)c3)cc2)C(=O)C2CCCCC2)c1 [Compound 186] |
| 0.71 | – | – | COC(=O)/C=C/c1cccc(N(Cc2ccc(-c3ccccc3)cc2)C(=O)C2CCCCC2)c1 [Compound 124] |
| 0.13 | – | – | COC(=O)/C=C/c1cccc(N(Cc2ccc(/C=C/c3cc(C(F)(F)F)cc(C(F)(F)F)c3)cc2)C(=O)NC(C)C)c1 [Compound 185] |
| 0.23 | – | – | COC(=O)C=Cc1cccc(N(Cc2ccc(C=CC(=O)OCc3ccccc3)cc2)C(=O)C2CCCCC2)c1 [Compound 153] |
| 1.38 | – | excellent activity | COC(=O)/C=C/c1cccc(N(Cc2ccc(-c3ccc(C)cc3)cc2)C(=O)C2CCCCC2)c1 [Compound 235] |
| 0.21 | – | – | COC(=O)/C=C/c1cccc(N(Cc2ccc(-c3ccc(OC(F)(F)F)cc3)cc2)C(=O)NC(C)C)c1 [Compound 252] |
| 1.51 | – | excellent activity | COC(=O)/C=C/c1cccc(N(Cc2ccc(-c3ccc4c(c3)OCO4)cc2)C(=O)NC(C)C)c1 [Compound 246] |
| 0.79 | 108 | excellent activity | COC(=O)/C=C/c1cccc(N(Cc2ccc(/C=C/c3c(F)cccc3F)cc2)C(=O)C(C)C)c1 [Compound 190] |
| – | – | inactive | COC(=O)/C=C/c1cccc(N(C)Cc2ccc3c(c2OC)OC(C)(C)C=C3)c1 [Compound 79] |
| 1.52 | 77 | excellent activity | COC(=O)/C=C/c1cccc(N(Cc2ccc(-c3cccc(Cl)c3)cc2)C(=O)C(C)C)c1 [Compound 233] |
| 1.14 | – | – | CCOC(=O)C=Cc1ccc(CN(C(=O)C2CCCCC2)c2cccc(C=CC(=O)OC)c2)cc1 [Compound 151] |
| – | – | inactive | COc1c(CN(C(=O)C2CC2)c2cccc(/C=C/C#N)c2)ccc2c1OC(C)(C)C=C2 [Compound 34] |
| 0.15 | 1470 | – | COC(=O)C=Cc1cccc(N(Cc2ccc(C=Cc3cc(C(F)(F)F)cc(C(F)(F)F)c3)cc2)C(=O)C2CCCCC2)c1 [Compound 183] |
| – | – | inactive | CCOC(=O)/C=C/c1cccc(N(Cc2ccc3c(c2OC)OC(C)(C)C=C3)C(=O)C2CC2)c1 [Compound 30] |
| 0.49 | 359 | – | COC(=O)/C=C/c1cccc(N(Cc2ccc(-c3ccccc3OC)cc2)C(=O)C2CCCCC2)c1 [Compound 218] |
| – | – | did not improve the activity | COC(=O)C=Cc1cccc(N(Cc2ccc3c(c2OC)OC(C)(C)C(O)C3N2CCCCC2)C(=O)c2ccccc2)c1 (centres unmarked) [Compound 100] |

| RE^a | EC50 [nM] | FXR activation, in words | Compound |
| --- | --- | --- | --- |
| 1.87 | – | excellent activity | COC(=O)/C=C/c1cccc(N(Cc2ccc(-c3ccc(F)c(Cl)c3)cc2)C(=O)C2CCCCC2)c1 [Compound 247] |
| 0.33 | – | – | CCOc1cccc(-c2ccc(CN(C(=O)NC(C)C)c3cccc(/C=C/C(=O)OC)c3)cc2)c1 [Compound 228] |
| 1.56 | – | excellent activity | COC(=O)/C=C/c1cccc(N(Cc2ccc(-c3cccc(Cl)c3)cc2)C(=O)C2CCCCC2)c1 [Compound 232] |
| 0.10 | – | excellent activity | COC(=O)/C=C/c1cccc(N(Cc2ccc(-c3c(OC)cccc3OC)cc2)C(=O)C(C)C)c1 [Compound 257] |
| 1.09 | 164 | excellent activity | COC(=O)/C=C/c1cccc(N(Cc2ccc(/C=C/c3cccc(Cl)c3)cc2)C(=O)C(C)C)c1 [Compound 181] |
| 0.41 | – | – | COC(=O)/C=C/c1cccc(N(Cc2ccc(-c3cccc(OC)c3)cc2)C(=O)NC(C)C)c1 [Compound 225] |
| 1.56 | – | – | COC(=O)C=Cc1cccc(N(Cc2ccc(CCC(=O)OC(C)(C)C)cc2)C(=O)C2CCCCC2)c1 [Compound 159] |
| 1.37 | – | – | CCOc1cccc(-c2ccc(CN(C(=O)C3CCCCC3)c3cccc(/C=C/C(=O)OC)c3)cc2)c1 [Compound 226] |
| – | – | did not improve the activity | COC(=O)/C=C/c1cccc(N(Cc2ccc3c(c2OC)OC(C)(C)C=C3C(=O)O)C(=O)c2ccccc2)c1 [Compound 86] |
| 0.10 | – | – | COC(=O)/C=C/c1cccc(N(Cc2ccc(-c3c(OC)cccc3OC)cc2)C(=O)NC(C)C)c1 [Compound 258] |
| 0.13 | – | – | COC(=O)/C=C/c1cccc(N(Cc2ccc(/C=C/c3cc(C(F)(F)F)cc(C(F)(F)F)c3)cc2)C(=O)C(C)C)c1 [Compound 184] |
| 0.12 | – | excellent activity | COC(=O)/C=C/c1cccc(N(Cc2ccc(-c3c(OC)cccc3OC)cc2)C(=O)C2CCCCC2)c1 [Compound 256] |
| 0.38 | – | – | COC(=O)C=Cc1cccc(N(Cc2ccc(C=CC(=O)OC(C)(C)C)cc2OCc2ccccc2)C(=O)C2CCCCC2)c1 [Compound 163] |
| 0.14 | – | – | COC(=O)/C=C/c1cccc(N(Cc2ccc(/C=C/c3c(Cl)cccc3Cl)cc2)C(=O)C(C)C)c1 [Compound 178] |
| 0.83 | – | – | COC(=O)C=Cc1cccc(N(Cc2ccc3c(c2OC)OC(C)(C)C=C3)C(=O)c2ccccc2)c1 [Compound 68] |
| 0.15 | – | – | COC(=O)C=Cc1cccc(N(Cc2ccc(C(C)(C)C)cc2)C(=O)C2CCCCC2)c1 [Compound 148] |

From patent publication US7671085B2, “Non-steroidal farnesoid X receptor modulators and methods for the use thereof” (The Salk Institute for Biological Studies, priority 2002, dated 2010)
